{
  "source": "PubChem BioAssay AID2060909",
  "about": "(Molecular Pharmacology Branch, DTP, NCI, 2025);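 note: spheroids exposed to the agents for 7 days before readout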;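 for viability, T/C: luminescence viability as percent of DMSO vehicle control wells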",
  "test_system": "362531-283-R-J2-PDC complex spheroid viability",
  "experiment": "Anticancer human tumor 362531-283-R-J2-PDC patient-derived colon adenocarcinoma cell line growth inhibition [RAS]",
  "settings": "for IC50: curve of first compound; for viability, T/C: stronger effect = lower value",
  "procedure,_shortened": "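Multi-cell-type spheroids: tumor cells plus HUVEC endothelial cells and mesenchymal stem cells. RAS-pathway inhibitors were combined with targeted agents, each dosed in half-log steps down from clinical Cmax, or from 10 microM when Cmax was unknown.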",
  "data": [
    {"smiles": "CC(C)n1nc(-c2ccc3oc(N)nc3c2)c2c(N)ncnc21", "note": "+ C=CC(=O)N1CCN(c2nc(OCC3CCCN3C)nc3c(F)c(-c4nc(N)cc(C)c4C(F)(F)F)c(Cl)cc23)C(C)C1", "values": [
      {"measurement": "IC50", "setting": "second compound 0.00316 µM", "result": "> 100", "unit": "nM"},
      {"measurement": "IC50", "setting": "second compound 0.01 µM", "result": "> 100", "unit": "nM"},
      {"measurement": "IC50", "setting": "second compound 0.0316 µM", "result": "> 100", "unit": "nM"},
      {"measurement": "IC50", "setting": "second compound 0.1 µM", "result": "> 100", "unit": "nM"},
      {"measurement": "IC50", "setting": "second compound 0.316 µM", "result": "> 100", "unit": "nM"},
      {"measurement": "IC50", "setting": "second compound 1 µM", "result": "> 100", "unit": "nM"},
      {"measurement": "viability, T/C", "setting": "second compound 0.00316 µM, first compound 0.000316 µM", "result": 97.8, "unit": "%"},
      {"measurement": "viability, T/C", "setting": "second compound 0.00316 µM, first compound 0.001 µM", "result": 91.8, "unit": "%"},
      {"measurement": "viability, T/C", "setting": "second compound 0.00316 µM, first compound 0.00316 µM", "result": 101, "unit": "%"},
      {"measurement": "viability, T/C", "setting": "second compound 0.00316 µM, first compound 0.01 µM", "result": 89.2, "unit": "%"},
      {"measurement": "viability, T/C", "setting": "second compound 0.00316 µM, first compound 0.0316 µM", "result": 62.9, "unit": "%"},
      {"measurement": "viability, T/C", "setting": "second compound 0.00316 µM, first compound 0.1 µM", "result": 97.1, "unit": "%"},
      {"measurement": "viability, T/C", "setting": "second compound 0.01 µM, first compound 0.000316 µM", "result": 93.5, "unit": "%"},
      {"measurement": "viability, T/C", "setting": "second compound 0.01 µM, first compound 0.001 µM", "result": 92.2, "unit": "%"},
      {"measurement": "viability, T/C", "setting": "second compound 0.01 µM, first compound 0.00316 µM", "result": 105, "unit": "%"},
      {"measurement": "viability, T/C", "setting": "second compound 0.01 µM, first compound 0.01 µM", "result": 87.3, "unit": "%"},
      {"measurement": "viability, T/C", "setting": "second compound 0.01 µM, first compound 0.0316 µM", "result": 54.9, "unit": "%"},
      {"measurement": "viability, T/C", "setting": "second compound 0.01 µM, first compound 0.1 µM", "result": 89.7, "unit": "%"},
      {"measurement": "viability, T/C", "setting": "second compound 0.0316 µM, first compound 0.000316 µM", "result": 100, "unit": "%"},
      {"measurement": "viability, T/C", "setting": "second compound 0.0316 µM, first compound 0.001 µM", "result": 95.9, "unit": "%"},
      {"measurement": "viability, T/C", "setting": "second compound 0.0316 µM, first compound 0.00316 µM", "result": 102, "unit": "%"},
      {"measurement": "viability, T/C", "setting": "second compound 0.0316 µM, first compound 0.01 µM", "result": 80.7, "unit": "%"},
      {"measurement": "viability, T/C", "setting": "second compound 0.0316 µM, first compound 0.0316 µM", "result": 65.9, "unit": "%"},
      {"measurement": "viability, T/C", "setting": "second compound 0.0316 µM, first compound 0.1 µM", "result": 101, "unit": "%"},
      {"measurement": "viability, T/C", "setting": "second compound 0.1 µM, first compound 0.000316 µM", "result": 91.9, "unit": "%"},
      {"measurement": "viability, T/C", "setting": "second compound 0.1 µM, first compound 0.001 µM", "result": 93.1, "unit": "%"},
      {"measurement": "viability, T/C", "setting": "second compound 0.1 µM, first compound 0.00316 µM", "result": 99.6, "unit": "%"},
      {"measurement": "viability, T/C", "setting": "second compound 0.1 µM, first compound 0.01 µM", "result": 87, "unit": "%"},
      {"measurement": "viability, T/C", "setting": "second compound 0.1 µM, first compound 0.0316 µM", "result": 86.2, "unit": "%"},
      {"measurement": "viability, T/C", "setting": "second compound 0.1 µM, first compound 0.1 µM", "result": 64.5, "unit": "%"},
      {"measurement": "viability, T/C", "setting": "second compound 0.316 µM, first compound 0.000316 µM", "result": 107, "unit": "%"},
      {"measurement": "viability, T/C", "setting": "second compound 0.316 µM, first compound 0.001 µM", "result": 106, "unit": "%"},
      {"measurement": "viability, T/C", "setting": "second compound 0.316 µM, first compound 0.00316 µM", "result": 104, "unit": "%"},
      {"measurement": "viability, T/C", "setting": "second compound 0.316 µM, first compound 0.01 µM", "result": 106, "unit": "%"},
      {"measurement": "viability, T/C", "setting": "second compound 0.316 µM, first compound 0.0316 µM", "result": 68.2, "unit": "%"},
      {"measurement": "viability, T/C", "setting": "second compound 0.316 µM, first compound 0.1 µM", "result": 82.7, "unit": "%"},
      {"measurement": "viability, T/C", "setting": "second compound 1 µM, first compound 0.000316 µM", "result": 107, "unit": "%"},
      {"measurement": "viability, T/C", "setting": "second compound 1 µM, first compound 0.001 µM", "result": 105, "unit": "%"},
      {"measurement": "viability, T/C", "setting": "second compound 1 µM, first compound 0.00316 µM", "result": 97, "unit": "%"},
      {"measurement": "viability, T/C", "setting": "second compound 1 µM, first compound 0.01 µM", "result": 107, "unit": "%"},
      {"measurement": "viability, T/C", "setting": "second compound 1 µM, first compound 0.0316 µM", "result": 49.6, "unit": "%"},
      {"measurement": "viability, T/C", "setting": "second compound 1 µM, first compound 0.1 µM", "result": 81.5, "unit": "%"}
    ]},
    {"smiles": "CC(C)n1nc(-c2ccc3oc(N)nc3c2)c2c(N)ncnc21", "note": "+ CCn1c(-c2cc(N3CCN(C)CC3)cnc2C(C)OC)c2c3cc(ccc31)-c1csc(n1)CC(NC(=O)C1CC1C)C(=O)N1CCCC(N1)C(=O)OCC(C)(C)C2", "values": [
      {"measurement": "IC50", "setting": "second compound 0.000949 µM", "result": 62.7, "unit": "nM"},
      {"measurement": "IC50", "setting": "second compound 0.003 µM", "result": 67.9, "unit": "nM"},
      {"measurement": "IC50", "setting": "second compound 0.00949 µM", "result": 48.1, "unit": "nM"},
      {"measurement": "IC50", "setting": "second compound 0.03 µM", "result": 41.3, "unit": "nM"},
      {"measurement": "IC50", "setting": "second compound 0.0949 µM", "result": 18.8, "unit": "nM"},
      {"measurement": "IC50", "setting": "second compound 0.3 µM", "result": "< 0.316", "unit": "nM"},
      {"measurement": "viability, T/C", "setting": "second compound 0.000949 µM, first compound 0.000316 µM", "result": 88.2, "unit": "%"},
      {"measurement": "viability, T/C", "setting": "second compound 0.000949 µM, first compound 0.001 µM", "result": 97.4, "unit": "%"},
      {"measurement": "viability, T/C", "setting": "second compound 0.000949 µM, first compound 0.00316 µM", "result": 98.9, "unit": "%"},
      {"measurement": "viability, T/C", "setting": "second compound 0.000949 µM, first compound 0.01 µM", "result": 106, "unit": "%"},
      {"measurement": "viability, T/C", "setting": "second compound 0.000949 µM, first compound 0.0316 µM", "result": 62.9, "unit": "%"},
      {"measurement": "viability, T/C", "setting": "second compound 0.000949 µM, first compound 0.1 µM", "result": 41.2, "unit": "%"},
      {"measurement": "viability, T/C", "setting": "second compound 0.003 µM, first compound 0.000316 µM", "result": 99.4, "unit": "%"},
      {"measurement": "viability, T/C", "setting": "second compound 0.003 µM, first compound 0.001 µM", "result": 102, "unit": "%"},
      {"measurement": "viability, T/C", "setting": "second compound 0.003 µM, first compound 0.00316 µM", "result": 102, "unit": "%"},
      {"measurement": "viability, T/C", "setting": "second compound 0.003 µM, first compound 0.01 µM", "result": 100, "unit": "%"},
      {"measurement": "viability, T/C", "setting": "second compound 0.003 µM, first compound 0.0316 µM", "result": 69.7, "unit": "%"},
      {"measurement": "viability, T/C", "setting": "second compound 0.003 µM, first compound 0.1 µM", "result": 40, "unit": "%"},
      {"measurement": "viability, T/C", "setting": "second compound 0.00949 µM, first compound 0.000316 µM", "result": 102, "unit": "%"},
      {"measurement": "viability, T/C", "setting": "second compound 0.00949 µM, first compound 0.001 µM", "result": 111, "unit": "%"},
      {"measurement": "viability, T/C", "setting": "second compound 0.00949 µM, first compound 0.00316 µM", "result": 93.6, "unit": "%"},
      {"measurement": "viability, T/C", "setting": "second compound 0.00949 µM, first compound 0.01 µM", "result": 94.7, "unit": "%"},
      {"measurement": "viability, T/C", "setting": "second compound 0.00949 µM, first compound 0.0316 µM", "result": 57.6, "unit": "%"},
      {"measurement": "viability, T/C", "setting": "second compound 0.00949 µM, first compound 0.1 µM", "result": 35.9, "unit": "%"},
      {"measurement": "viability, T/C", "setting": "second compound 0.03 µM, first compound 0.000316 µM", "result": 89.5, "unit": "%"},
      {"measurement": "viability, T/C", "setting": "second compound 0.03 µM, first compound 0.001 µM", "result": 86.5, "unit": "%"},
      {"measurement": "viability, T/C", "setting": "second compound 0.03 µM, first compound 0.00316 µM", "result": 89.6, "unit": "%"},
      {"measurement": "viability, T/C", "setting": "second compound 0.03 µM, first compound 0.01 µM", "result": 92, "unit": "%"},
      {"measurement": "viability, T/C", "setting": "second compound 0.03 µM, first compound 0.0316 µM", "result": 54, "unit": "%"},
      {"measurement": "viability, T/C", "setting": "second compound 0.03 µM, first compound 0.1 µM", "result": 36.8, "unit": "%"},
      {"measurement": "viability, T/C", "setting": "second compound 0.0949 µM, first compound 0.000316 µM", "result": 82.2, "unit": "%"},
      {"measurement": "viability, T/C", "setting": "second compound 0.0949 µM, first compound 0.001 µM", "result": 84.1, "unit": "%"},
      {"measurement": "viability, T/C", "setting": "second compound 0.0949 µM, first compound 0.00316 µM", "result": 77.1, "unit": "%"},
      {"measurement": "viability, T/C", "setting": "second compound 0.0949 µM, first compound 0.01 µM", "result": 63.1, "unit": "%"},
      {"measurement": "viability, T/C", "setting": "second compound 0.0949 µM, first compound 0.0316 µM", "result": 39, "unit": "%"},
      {"measurement": "viability, T/C", "setting": "second compound 0.0949 µM, first compound 0.1 µM", "result": 35, "unit": "%"},
      {"measurement": "viability, T/C", "setting": "second compound 0.3 µM, first compound 0.000316 µM", "result": 41.6, "unit": "%"},
      {"measurement": "viability, T/C", "setting": "second compound 0.3 µM, first compound 0.001 µM", "result": 45.7, "unit": "%"},
      {"measurement": "viability, T/C", "setting": "second compound 0.3 µM, first compound 0.00316 µM", "result": 37, "unit": "%"},
      {"measurement": "viability, T/C", "setting": "second compound 0.3 µM, first compound 0.01 µM", "result": 21.1, "unit": "%"},
      {"measurement": "viability, T/C", "setting": "second compound 0.3 µM, first compound 0.0316 µM", "result": 21.8, "unit": "%"},
      {"measurement": "viability, T/C", "setting": "second compound 0.3 µM, first compound 0.1 µM", "result": 17.1, "unit": "%"}
    ]}
  ]
}
